Experimental data from US11401278B2, “Macrocyclic indole derivatives” (The Broad Institute, Inc., priority 2017, dated 2022).
Structures can show the parent of a compound that is named as a salt.

How the values were obtained:
SUDHL5 [1] = experiment: Antiproliferation assay (Assay 7), SUDHL5; type: cell-based; details: CellTiter-Glo, 72 hours, median, read-out: Antiproli SUDHL5 [M] (median) IC50
Procedure, shortened: (§1)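 Proliferation was read by CellTiter-Glo luminescence after 72 hours of compound treatment at 37° C. The read was referenced to a parallel plate measured at time zero.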

SUDHL5 [2] = experiment: Induction of caspase-3/7 activity (Assay 4), SUDHL5; type: cell-based; details: caspase-3/7 induction, 3 hours, median
Procedure, shortened: (§2)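 DLBCL cells were exposed to compounds for 3 hours at 37 °C, then caspase-3/7 activation was read with Caspase-Glo 3/7 reagent. After subtracting medium-only background, EC50s were derived with fixed C0=1 and the reference compound's maximal induction as plateau.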

DM-S114 = experiment: Antiproliferation assay (Assay 7), DM-S114; type: cell-based; details: CellTiter-Glo, 72 hours, median, read-out: Antiproli DM-S114 [M] median IC50
Experimental: (§3) Assessment of the Anti-Proliferative Effect of Compounds in Different Cell Lines
(§4) The impact of compounds on the proliferation of different cell lines was assessed using the CellTiter-Glo® Luminescent Cell Viability reagent from Promega (G7573).
(§5) In parallel, cells were plated in a reference (day 0) plate for time zero determination.
(§6) Rim wells were excluded. The cells were incubated for 72 hours in a humidified incubator at 37° C. The day 0 plate was measured by adding 30 μL/well of CTG solution (CellTiter-Glo® Luminescent Cell Viability reagent, Promega G7573) to time zero wells in the reference plate followed by a 10 minutes incubation and luminescence reading at 0.1 ms. using the PHERAstar FS microplate reader (BMG Labtech).
(§7) After 72 hours incubation, the treated plates were measured in the same way as the day 0 plate mentioned above.

SUDHL10 [3] = experiment: Induction of cytotoxicity (Assay 6), SUDHL10; details: read-out: Cytotox SUDHL10 [M] (median) IC50, CellTiter-Glo, 5 hours, SUDHL10
Experimental: (§8) Assay 6 Induction of Cytotoxicity Upon Treatment of Cells with Selected Compounds
(§9) Therefore, cytotoxicity assays were run in parallel in SUDHL5 and SUDHL10 cells.
(§10) The different cell lines were plated in culture medium (RPMI 1640 [GIBCO #22400-089] supplemented with 10% Fetal Bovine Serum) at a density of 3,300 cells in 30 μl/well in a sterile, solid black, flat bottom, polystyrene, TC-treated 384-well microplate (Corning #3571) using Multidrop Combi Reagent Dispenser. As a control, medium without cells was also added to the plate. Cells were incubated in a humidified incubator at 37° C. overnight. On the next day, the cells were treated with compounds (stock solution, 10 mM in DMSO) using the HP D300 Digital Dispenser in a concentration range of 3.3×10e-5 M (33 μM) to 5×10e-9 M (5 nM) in a single-dot curve with at least 16 dilutions and a DMSO concentration of 0.33%. Rim wells were excluded. The cells were incubated for 5 hours in a humidified incubator at 37° C. After this incubation, 30 μl of CellTiter-Glo® Luminescent Cell Viability reagent (Promega, G7573) was added to each well using the Multidrop Combi Reagent Dispenser, followed by 15 minutes incubation on a shaker at room temperature. Finally, luminescence was read at 0.1 ms, with a gain of 3000 using the PHERAstar FS microplate reader (BMG Labtech).

SUDHL5 [4] = experiment: Induction of cytotoxicity (Assay 6), SUDHL5; details: read-out: Cytotox SUDHL5 [M] (median) IC50, CellTiter-Glo, 5 hours, SUDHL5
Experimental: as §8, §9, §10

SUDHL10 [5] = experiment: Induction of caspase-3/7 activity (Assay 4), SUDHL10; type: cell-based; details: caspase-3/7 induction, 3 hours, median
Procedure, shortened: as §2

HMC-1-8 = experiment: Antiproliferation assay (Assay 7), HMC-1-8; type: cell-based; details: CellTiter-Glo, 72 hours, several values per example, read-out: Antiproli HMC-1-8 [M] IC50
Procedure, shortened: as §1

A-431 = experiment: Antiproliferation assay (Assay 7), A-431; type: cell-based; details: CellTiter-Glo, 72 hours, median, read-out: Antiproli A-431 [M] median IC50
Experimental: as §3, §4, §5, §6, §7

PA-1 = experiment: Antiproliferation assay (Assay 7), PA-1; type: cell-based; details: CellTiter-Glo, 72 hours, median, read-out: Antiproli PA-1 [M] median IC50
Experimental: as §3, §4, §5, §6, §7

MCL-1 = MCL-1 (Homo sapiens (Human), UniProt Q07820, K194A/K197A/R201A); experiment: Protein-protein interaction assay MCL-1/Noxa BH3 peptide (MCL-1 assay, TR-FRET); type: binding; details: MBP-MCL-1 / Noxa BH3 peptide, median
Procedure, shortened: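 TR-FRET competition assay read at 665/620 nm, with a Noxa BH3 tracer peptide (1 nM) plus Eu-cryptate anti-MBP and XL665-streptavidin. Compounds (0.1 nM-20 μM, duplicates) were pre-equilibrated 10 min at 22° C with 1 nM MBP-MCL-1 (173-329) in Tris pH 7, NaCl, KF, DTT buffer, then incubated 1 h at 22° C and overnight at 4° C. IC50 came from 4-parameter regression.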

SNU-16 = experiment: Antiproliferation assay (Assay 7), SNU-16; type: cell-based; details: CellTiter-Glo, 72 hours, median, read-out: Antiproli SNU-16 [M] median IC50
Experimental: as §3, §4, §5, §6, §7

SK-MEL-2 = experiment: Antiproliferation assay (Assay 7), SK-MEL-2; type: cell-based; details: CellTiter-Glo, 72 hours, median, read-out: Antiproli SK-MEL-2 [M] median IC50
Experimental: as §3, §4, §5, §6, §7

Sequence of MCL-1 (Q07820 whole entry K194A/K197A/R201A, looked up): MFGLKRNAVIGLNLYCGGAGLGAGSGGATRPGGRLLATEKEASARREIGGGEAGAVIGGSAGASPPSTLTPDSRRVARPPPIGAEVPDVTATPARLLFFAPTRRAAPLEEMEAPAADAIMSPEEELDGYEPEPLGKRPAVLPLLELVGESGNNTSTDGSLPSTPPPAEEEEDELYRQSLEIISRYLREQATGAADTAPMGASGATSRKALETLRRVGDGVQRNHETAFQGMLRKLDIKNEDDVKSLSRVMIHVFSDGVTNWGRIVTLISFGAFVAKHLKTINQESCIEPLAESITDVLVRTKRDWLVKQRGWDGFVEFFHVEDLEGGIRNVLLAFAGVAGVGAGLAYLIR

SMILES: CCc1c2c(nn1C)C(CCN1CCOCC1)N(C)S(=O)(=O)CCCn1c(C(=O)O)c(CCCOc3cccc4cc(F)ccc34)c3ccc(Cl)c-2c31 (single isomer, unassigned; enantiomer 1) [Example 75, 4-chloro-3-ethyl-7-{3-[(6-fluoronaphthalen-1-yl)oxy]propyl}-2,14-dimethyl-15-[2-(morpholin-4-yl)ethyl]-13,13-dioxo-10,11,12,13,14,15-hexahydro-2H-13lambda^6-pyrazolo[3′,4′:4,5][1,2,8]thiadiazacycloundecino[6,7,8-hi]indole-8-carboxylic acid-N-ethylethanamine Salt (Enantiomer 1)]
- IC50 (SUDHL5 [1]): 1.4e-05 M
- EC50 (SUDHL5 [2]): 11 µM
- IC50 (DM-S114): 3.66e-08 M
- IC50 (SUDHL10 [3]): 1.6e-05 M
- IC50 (SUDHL5 [4]): 1.6e-05 M
- EC50 (SUDHL10 [5]): 35 µM
- IC50 (HMC-1-8): > 3.3e-05 M
- IC50 (A-431): 3.24e-07 M
- IC50 (PA-1): 3.2e-08 M
- IC50 (MCL-1): 150 nM
- IC50 (SNU-16): 1.26e-07 M
- IC50 (SK-MEL-2): 4.64e-07 M
